Measurements published in US20210213104A1, “GLUCAGON AND GLP-1 CO-AGONISTS FOR THE TREATMENT OF CHRONIC KIDNEY DISEASE AND DIABETIC KIDNEY DISEASE IN TYPE 2 DIABETES” (MEDIMMUNE LIMITED, priority 2020, published 2021).

Experiments:
[1] = test system: subjects with T2DM and renal impairment; test: Phase 2a: eGFR (CKD-EPI equation); format: in vivo, human; conditions: Day 33 / after 32 days
Excerpt: Inclusion criteria: • Male and female subjects, aged ≥18 years and <85 years at screening; • Body mass index (BMI) between 25 kg/m^2 and 40 kg/m^2 (inclusive) at screening; • HbA1c range of 6.5% to 10.5% (inclusive) at the time of screening; • Diagnosed with T2DM with glucose control managed with any insulin and/or oral therapy combination where no significant dose changes of oral therapy of more than 50% had occurred in the 3 months prior to screening (at least 50% of the subject N=20) enrolled were required to have been taking insulin at a total daily dose of ≥20 units); • Renal impairment with eGFR ≥30 and <60 mL/min/1.73 m^2 at screening. Approximately 16 subjects (40%) were required to have a screening eGFR ≥45 and <60 mL/min/1.73 m^2 (in order to ensure subjects at both ends of the moderate renal impairment spectrum were adequately represented). eGFR was determined by the chronic kidney disease-epidemiology collaboration (CKD-EPI) equation. (eGFR=141×min(SCr/κ, 1)^α×max (SCr/κ, 1)^[…]^Age×1.018 [if female]×1.159 [if Black]; wherein SCr (standardized serum creatinine)=mg/dL, κ=0.7 (females) or 0.9 (males), α=−0.329 (females) or −0.411 (males), min=indicates the minimum of SCr/κ or 1, max=indicates the maximum of SCr/κ or 1, and age=years)

[2] = test system: diet induced obese (DIO) mice; test: Hyperinsulinemic clamps in diet induced obese (DIO) mice; format: in vivo
Method: Following 28 days of daily dosing with Cotadutide (10 nmol/kg), Liraglutide (5 nmol/kg; GLP-1 agonist) or g1437 (5 nmol/kg; a Gcg analog), mice underwent continuous infusion of 4 mU/kg/min insulin and [3H]-glucose to assess glucose turnover. Tissue-specific glucose uptake was assessed using 14C-2-deoxyglucose.

[3] = test system: subjects with T2DM and renal impairment; test: Phase 2a: fasting glucose blood test; format: in vivo, human; conditions: ITT; for Fasting Glucose LS Mean Change / Fasting Glucose Change from Baseline, Mean / Fasting Glucose Change from Baseline, Median / Fasting Glucose Difference in LS Mean Change (vs Placebo): Day 1 to Day 32; for Fasting Glucose LS Mean Change: ANCOVA
Method: Cotadutide was titrated from 50 μg up to 300 μg and administered once daily by subcutaneous (SC) injection over 32 days.
Cotadutide was administered at 50 μg once daily for 4 days, followed by 100 μg daily for 7 days, 200 μg daily for 7 days, and 300 μg daily for 14 days (n=20). Placebo was administered one daily for 32 days (n=20). Cotadutide and placebo were administered in the morning. Dosing commenced following predose baseline vital signs, blood tests (including HbA1c), an electrocardiogram (ECG), body weight measurement, and bioimpedance spectroscopy (BIS). Subjects then returned for daily dosing or remained overnight locally until Day 5, and thereafter, had visits at weekly intervals until a maintenance dose of 300 μg was established. Thus, Cotadutide or placebo was administered at the study site by study personal for the first four doses and on site on Days 5, 12, 19, and 32. At all other times, subjects preformed dosing at home.
Blood samples were collected to evaluate blood glucose (fasting) and HbA1c levels.
Fasting glucose was measured from baseline (Day 1) to the end of treatment (Day 32). […] LS mean reduction of fasting glucose from baseline was more apparent in subjects in the Insulin Dose <20 U/day subgroup compared to Insulin Dose ≥20 U/day subgroup.

CCCCCCCCCCCCCCCC(=O)N[C@@H](CCC(=O)NCCCC[C@H](NC(=O)[C@H](CC(=O)O)NC(=O)[C@H](CO)NC(=O)[C@@H](NC(=O)[C@H](Cc1ccccc1)NC(=O)[C@@H](NC(=O)CNC(=O)[C@H](CCC(N)=O)NC(=O)[C@H](CO)NC(=O)[C@@H](N)Cc1c[nH]cn1)[C@@H](C)O)[C@@H](C)O)C(=O)N[C@@H](CO)C(=O)N[C@@H](CCC(=O)O)C(=O)N[C@@H](Cc1ccc(O)cc1)C(=O)N[C@@H](CC(C)C)C(=O)N[C@@H](CC(=O)O)C(=O)N[C@@H](CO)C(=O)N[C@@H](CCC(=O)O)C(=O)N[C@@H](CCCNC(=N)N)C(=O)N[C@@H](C)C(=O)N[C@@H](CCCNC(=N)N)C(=O)N[C@@H](CC(=O)O)C(=O)N[C@@H](Cc1ccccc1)C(=O)N[C@H](C(=O)N[C@@H](C)C(=O)N[C@@H](Cc1c[nH]c2ccccc12)C(=O)N[C@@H](CC(C)C)C(=O)N[C@@H](CCC(=O)O)C(=O)N[C@@H](C)C(=O)NCC(=O)NCC(=O)O)C(C)C)C(=O)O [Cotadutide]
change in eGFR from baseline to end of dosing vs placebo [1]: No statistically significant difference | change in eGFR from baseline to end of dosing vs placebo ([1]; listed as cotadutide): no significant changes | insulin sensitivity [2]: improves insulin sensitivity | total insulin levels during the clamp ([2]; 4 mU/kg/min insulin infusion): remained lower | glucose uptake in brown adipose tissue ([2]; 14C-2-deoxyglucose): elevated | Fasting insulin compared with vehicle ([2]; 28 days daily dosing): dramatically lower | glucose disposal rate ([2]; clamp): increased | glucose infusion rate to maintain euglycemia ˜130 mg/dL ([2]; clamp): significantly higher | Fasting Glucose LS Mean Change ([3]; Insulin Dose < 20 U/day): -32.24 mg/dL | Fasting Glucose LS Mean Change ([3]; Insulin Dose ≥ 20 U/day): -12.28 mg/dL | Fasting Glucose LS Mean Change ([3]; Total): -19.55 mg/dL | Fasting Glucose Change from Baseline, Mean ([3]; Insulin Dose < 20 U/day): -31.79 mg/dL | Fasting Glucose Change from Baseline, Median ([3]; Insulin Dose < 20 U/day): -39.64 mg/dL | Fasting Glucose Difference in LS Mean Change (vs Placebo) ([3]; Insulin Dose < 20 U/day): -28.11 mg/dL | Fasting Glucose Change from Baseline, Mean ([3]; Insulin Dose ≥ 20 U/day): -9.39 mg/dL | Fasting Glucose Change from Baseline, Median ([3]; Insulin Dose ≥ 20 U/day): -9.01 mg/dL | Fasting Glucose Difference in LS Mean Change (vs Placebo) ([3]; Insulin Dose ≥ 20 U/day): -15.02 mg/dL | Fasting Glucose Change from Baseline, Mean ([3]; Total): -17.64 mg/dL | Fasting Glucose Change from Baseline, Median ([3]; Total): -19.82 mg/dL | Fasting Glucose Difference in LS Mean Change (vs Placebo) ([3]; Total): -20.15 mg/dL | Fasting Glucose, Day 32, Mean ([3]; Insulin Dose < 20 U/day): 125.75 mg/dL | Fasting Glucose, Day 32, Median ([3]; Insulin Dose < 20 U/day): 125.24 mg/dL | Fasting Glucose, Day 32, Mean ([3]; Insulin Dose ≥ 20 U/day): 159.03 mg/dL | Fasting Glucose, Day 32, Median ([3]; Insulin Dose ≥ 20 U/day): 141.91 mg/dL | Fasting Glucose, Day 32, Mean ([3]; Total): 146.77 mg/dL | Fasting Glucose, Day 32, Median ([3]; Total): 139.66 mg/dL
